± gives the standard deviation of the reports.
## *C(=O)c1ccc2c(c1)C(=O)N(c1cc(OCCCCCCCC)cc(N3C(=O)c4ccc(*)cc4C3=O)c1)C2=O (repeat unit)
  glass transition temperature: 195.00 °C

## *C(=O)Nc1cccc(NC(=O)c2ccc3c(c2)C(=O)N(c2cc(-c4nc5ccccc5o4)cc(N4C(=O)c5ccc(*)cc5C4=O)c2)C3=O)n1 (repeat unit)
  glass transition temperature: 365.00 °C

## *c1ccc(OCCCCCCCCCCCOc2ccc(-c3ccc4nc(-c5cccc(-c6cc(-c7ccccc7)c7cc(*)ccc7n6)c5)cc(-c5ccccc5)c4c3)cc2)cc1 (repeat unit)
  glass transition temperature: 133.50 °C

## *CCCCCCCCCCNC(=O)CCCCCCCCCCCCCCCCC(=O)N* (repeat unit)
  glass transition temperature: 46.00 °C

## *CCN(*)C(=O)CCCCC (repeat unit)
  glass transition temperature: 7.00 °C

## *Oc1ccc(C(=O)NCC(C)(C)CCCNC(=O)c2ccc(*)cc2)cc1 (repeat unit)
  glass transition temperature: 155.00 °C

## *CCCCCC(Cl)C(*)Cl (repeat unit)
  glass transition temperature: -17.00 °C

## *c1ccc2c(c1)C(=O)N(c1ccc(-c3ccc(N4C(=O)c5ccc(C(*)(C(F)(F)F)C(F)(F)F)cc5C4=O)c(OCCN(CC)c4ccc(C(C#N)=C(C#N)C#N)cc4)c3)cc1OCCN(CC)c1ccc(C(C#N)=C(C#N)C#N)cc1)C2=O (repeat unit)
  glass transition temperature: 222.00 °C

## *Sc1ccc2c(c1)Sc1ccc(*)cc1S2 (repeat unit)
  glass transition temperature: 209.90 °C

## *CC(*)C(=O)OCCCOc1ccc(-c2ccc(C#N)cc2)cc1 (repeat unit)
  glass transition temperature: 54.2 °C

## *CC(C)(CCC)COC(=O)c1ccc(-c2ccc(C(=O)O*)cc2)cc1 (repeat unit)
  glass transition temperature: 95.00 °C

## *CC(*)c1ccc(B(Oc2ccc(Cl)c3cccnc23)c2ccc(C(C)(C)C)cc2)cc1 (repeat unit)
  glass transition temperature: 238.00 °C

## *c1ccc(Oc2ccc(Oc3ccc(-c4nc(*)nc(-c5ccccc5)n4)cc3)cc2)cc1 (repeat unit)
  glass transition temperature: 244.00 °C

## *c1ccc(-c2ccc3nc(*)cc(-c4ccccc4)c3c2)cc1 (repeat unit)
  glass transition temperature: 383.00 °C

## *CCCC(=O)Oc1ccc(-c2ccc(OC(=O)c3ccc4c(c3)C(=O)N(*)C4=O)cc2)cc1 (repeat unit)
  glass transition temperature: 132.00 °C

## *CC(C)(CO)CO* (repeat unit)
  glass transition temperature: 62.00 °C

## *CC(*)(C)C(=O)OCCCCCCOc1ccc(C(=O)Oc2ccc(/N=N/c3ccc(Cl)cc3)c3ccccc23)cc1 (repeat unit)
  glass transition temperature: 50.00 °C

## *CCOCO* (repeat unit)
  glass transition temperature: -64.00 °C

## *c1ccc(S(=O)(=O)c2ccc(-n3nc(-c4ccccc4)c4ccc(Oc5ccc6c(-c7ccccc7)nn(*)c(=O)c6c5)cc4c3=O)cc2)cc1 (repeat unit)
  glass transition temperature: 294.50 °C

## *CCN(CCOC(=O)c1ccc(C(=O)O*)cc1)c1ccc(/N=N/c2ccc(-c3nc4ccc([N+](=O)[O-])cc4n3CC)cc2)cc1 (repeat unit)
  glass transition temperature: 149.00 °C

## *O[Si](*)(C)CCCCCC (repeat unit)
  glass transition temperature: -110.8 °C

## *CCCCCCNC(=O)CCCCCC(=O)N* (repeat unit)
  glass transition temperature: 54.00 °C

## *CC(*)c1ccc(C(=O)OC(C)C)cc1 (repeat unit)
  glass transition temperature: 95.00 °C

## *CC(*)C(=O)OCc1c(Br)c(Br)c(Br)c(Br)c1Br (repeat unit)
  glass transition temperature: 181.00 °C

## *CC(O)COC(=O)CCCCCCC(=O)OCC(O)COc1ccc(C(C)(C)c2ccc(O*)cc2)cc1 (repeat unit)
  glass transition temperature: 35.00 °C

## *c1ccc(C(=O)Nc2ccc(-c3nnc(*)o3)cc2)c(Oc2ccccc2)c1 (repeat unit)
  glass transition temperature: 235.00 °C

## *C(=O)Nc1ccc(Oc2ccc(S(=O)(=O)c3ccc(Oc4ccc(NC(=O)c5ccc6c(c5)C(=O)N(c5ccc(Oc7cccc8c(Oc9ccc(N%10C(=O)c%11ccc(*)cc%11C%10=O)cc9)cccc78)cc5)C6=O)cc4)cc3)cc2)cc1 (repeat unit)
  glass transition temperature: 260.00 °C

## *c1ccc2c(c1)C(=O)N(c1ccc(-c3ccc(N4C(=O)c5ccc(C(*)(C(F)(F)F)C(F)(F)F)cc5C4=O)cc3C(F)(F)F)c(C(F)(F)F)c1)C2=O (repeat unit)
  glass transition temperature: 327.00 ± 18 °C

## *C(=O)Nc1ccc(Oc2ccc(N3C(=O)CC(N4C(=O)c5ccc(*)cc5C4=O)C3=O)cc2)cc1 (repeat unit)
  glass transition temperature: 223.00 °C

## *c1ccc([Si](c2ccccc2)(c2ccccc2)c2ccc(-c3nnc(*)o3)cc2)cc1 (repeat unit)
  glass transition temperature: 262.00 °C

## *CC1CCC(CNC(=O)CCCCCCCCC(=O)N*)CC1 (repeat unit)
  glass transition temperature: 89.00 °C

## *c1ccc2c(c1)C(=O)N(c1ccc(Oc3ccc(C(=O)c4cccc(N5C(=O)c6ccc(C(*)(C(F)(F)F)C(F)(F)F)cc6C5=O)c4)cc3)cc1)C2=O (repeat unit)
  glass transition temperature: 242.00 °C

## *C1C(=O)N(c2cc(Br)c(O[Si](C)(C)C(C)(C)C)c(Br)c2)C(=O)C1* (repeat unit)
  glass transition temperature: 164.00 °C

## *CC(*)N1CCCC1=S (repeat unit)
  glass transition temperature: 80.00 °C

## *c1ccc(Oc2ccc(-c3cc(-c4ccccc4)c4cc(Oc5ccc6nc(*)cc(-c7ccccc7)c6c5)ccc4n3)cc2)cc1 (repeat unit)
  glass transition temperature: 266.00 °C

## *C(F)(F)C1(F)C(F)(F)C(*)(F)C(F)(F)C(F)(F)C(F)(F)C1(F)F (repeat unit)
  glass transition temperature: 198.00 °C

## *Cc1cc(C23CC4CC(CC(C4)C2)C3)cc(CN(*)c2ccccc2)c1O (repeat unit)
  glass transition temperature: 109.40 °C

## *c1ccc(Oc2ccc(Oc3ccc(N4C(=O)c5ccc(Oc6ccc(-c7ccc(Oc8ccc9c(c8)C(=O)N(*)C9=O)cc7)cc6)cc5C4=O)cc3)cc2)cc1 (repeat unit)
  glass transition temperature: 222.00 °C

## *C(=O)Nc1ccc(NC(=O)c2ccc(NC(=O)c3ccc(-c4nc5cc(*)ccc5[nH]4)cc3)cc2)cc1 (repeat unit)
  glass transition temperature: 295.00 °C

## *Oc1c(C)cc(C2(c3cc(C)c(Oc4ccc(C(=O)c5cccc(C(=O)c6ccc(*)cc6)c5)cc4)c(C)c3)CCC3CCCCC3C2)cc1C (repeat unit)
  glass transition temperature: 224.00 °C

## *C(=O)Nc1ccc(Oc2ccc(C(c3ccc(Oc4ccc(NC(=O)c5ccc6c(c5)C(=O)N(c5ccc(Oc7ccc8ccc(Oc9ccc(N%10C(=O)c%11ccc(*)cc%11C%10=O)cc9)cc8c7)cc5)C6=O)cc4)cc3)(C(F)(F)F)C(F)(F)F)cc2)cc1 (repeat unit)
  glass transition temperature: 250.00 °C

## *c1ccc(Oc2ccc(C(c3ccc(Oc4ccc(-c5ncc(*)o5)cc4C(F)(F)F)cc3)(C(F)(F)F)C(F)(F)F)cc2)c(C(F)(F)F)c1 (repeat unit)
  glass transition temperature: 205.00 °C

## *c1ccc(Sc2ccc3c(c2)Sc2ccc(Sc4ccc(-n5c(=O)c6cc7c(=O)n(*)c(=O)c7cc6c5=O)cc4)cc2S3)cc1 (repeat unit)
  glass transition temperature: 254.8 °C

## *CC(CO*)(CS(=O)(=O)CCCCC)CS(=O)(=O)CCCCC (repeat unit)
  glass transition temperature: 56.00 °C

## *CNC(=O)OCC(OC(=O)NCc1ccc(*)o1)c1ccco1 (repeat unit)
  glass transition temperature: 30.00 °C

## *Oc1ccc(C(C)(C)c2ccc(Oc3ccc(C(=O)c4ccc(-c5ccc(C(=O)c6ccc(*)cc6)cc5)cc4)cc3)cc2)cc1 (repeat unit)
  glass transition temperature: 186.00 °C

## *CCCCCCOC(=O)CCC(=O)O* (repeat unit)
  glass transition temperature: -50.00 °C

## *CC(*)c1cc(Br)ccc1OCCCC (repeat unit)
  glass transition temperature: 47.00 °C

## *CC(*)c1cc(-c2ccc(C(=O)OC(C)CC)cc2)ccc1-c1ccc(C(=O)OC(C)CC)cc1 (repeat unit)
  glass transition temperature: 212.50 °C

## *Oc1ccc(OC(=O)c2ccc(C(*)=O)cc2Oc2ccc(C3CCCCC3)cc2)cc1 (repeat unit)
  glass transition temperature: 113.00 °C

## *C(=O)c1ccc2c(c1)C(=O)N(c1cccc(P(=O)(c3ccc(Oc4ccc(C56CC7CC(CC(C7)C5)C6)cc4)cc3)c3cccc(N4C(=O)c5ccc(*)cc5C4=O)c3)c1)C2=O (repeat unit)
  glass transition temperature: 305.00 °C

## *c1cc(*)cc(-c2nc3ccccc3o2)c1 (repeat unit)
  glass transition temperature: 250.00 °C

## *CCCOC(=O)CCCCCCC(=O)O* (repeat unit)
  glass transition temperature: -52.50 °C

## *Oc1ccccc1S(=O)(=O)c1ccc(*)cc1 (repeat unit)
  glass transition temperature: 221.00 °C

## *CCC(=O)Nc1ccc(Oc2ccc(NC(=O)CCN3C(=O)c4ccc(C(=O)c5ccc6c(c5)C(=O)N(*)C6=O)cc4C3=O)cc2)cc1 (repeat unit)
  glass transition temperature: 232.00 °C

## *CC(*)(C)C(=O)OCc1ccc(F)cc1F (repeat unit)
  glass transition temperature: 46.00 °C

## *Oc1ccc(C(C)(C)c2ccc(Oc3ccc(C(O)C(O)c4ccc(*)cc4)cc3)cc2)cc1 (repeat unit)
  glass transition temperature: 151.00 °C

## *Oc1ccc(C(=O)c2ccc(Oc3ccc(C(=O)c4cccc(C(=O)c5ccc(*)cc5)c4)cc3)cc2)cc1 (repeat unit)
  glass transition temperature: 152.00 °C

## *CCC1C(=O)N(CCCCCC)C(=O)C1* (repeat unit)
  glass transition temperature: 41.50 °C

## *O/C(=C/CC)C(CC)C(*)=O (repeat unit)
  glass transition temperature: -15.90 °C

## *c1cccc(OCCCCCCCCCOc2cccc(N3C(=O)c4ccc(-c5cccc6c5C(=O)N(*)C6=O)cc4C3=O)c2)c1 (repeat unit)
  glass transition temperature: 134.00 °C

## *CCCCSSCCCCOCO* (repeat unit)
  glass transition temperature: -76.00 °C

## *C(=O)Nc1ccc(Oc2cccc(Oc3ccc(NC(=O)c4ccc5c(c4)C(=O)N(c4ccc(Sc6ccc(Oc7ccc(Sc8ccc(N9C(=O)c%10ccc(*)cc%10C9=O)cc8)cc7)cc6)cc4)C5=O)cc3)c2)cc1 (repeat unit)
  glass transition temperature: 179.00 °C

## *C(=O)c1ccc2c(c1)C(=O)N(c1ccc(C(=O)c3cccc(N4C(=O)c5ccc(*)cc5C4=O)c3)cc1)C2=O (repeat unit)
  glass transition temperature: 282.00 ± 3 °C

## *Cc1ccc(CNC(=O)c2cc(C(=O)N*)cc(C(C)(C)C)c2)cc1 (repeat unit)
  glass transition temperature: 204.00 °C

## *Oc1ccc(C2(c3ccc(OC(*)=O)c(C)c3)CC3CC2C2CCCC32)cc1C (repeat unit)
  glass transition temperature: 217.00 °C

## *OC(=O)c1ccc(C(=O)Oc2ccc3c(c2)Oc2cc(*)ccc2C32c3ccccc3-c3ccccc32)cc1 (repeat unit)
  glass transition temperature: 290.00 °C

## *OC(CC(*)=O)C(Cl)(Cl)Cl (repeat unit)
  glass transition temperature: 163.50 °C

From the PolyMetriX glass transition set
